# Laboratory results from article PMC8369186, “Ligand-Based and Docking-Based Virtual Screening of MDM2 Inhibitors as Potent Anticancer Agents” (Computational and Mathematical Methods in Medicine, 2021).
# Where two headings read alike, the source gives them in different places.
# How the values were obtained:
# Cathepsin K = target: T1, Cathepsin K (Homo sapiens, UniProt P43235); assay: Cathepsin K inhibitory activity; assay type: biochemical
# T1 sequence (P43235 115-329): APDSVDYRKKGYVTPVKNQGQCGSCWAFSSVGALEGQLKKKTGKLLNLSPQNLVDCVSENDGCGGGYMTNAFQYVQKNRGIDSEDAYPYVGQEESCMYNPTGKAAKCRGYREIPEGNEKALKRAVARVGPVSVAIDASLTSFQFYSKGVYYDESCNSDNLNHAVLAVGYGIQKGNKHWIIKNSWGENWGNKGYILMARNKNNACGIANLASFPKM
# MDM2 = MDM2 (Homo sapiens, UniProt Q00987); assay: MDM2 binding assay (fluorescence polarization); conditions: for Inhibition (200 μM, %): 200 μM compound; for inhibition at 200 µM: read-out: Inhibition (200 μM, %), 200 μM compound
# Method: The MDM2 binding tests of all 17 compounds were carried out by a fluorescence polarization assay.
# 30 nM preincubated (30 min) MDM2 and 10 nM PMDM-F peptide in reaction buffer (100 μL, potassium phosphate, 100 mM; bovine gamma globulin, […]; sodium azide, 0.02%) were added into a 96-well plate containing tested compounds at pH 7.5. […] The Ki values were calculated according to a reported method.
# MCF7 (p53 -/-) cells = assay: cells; assay type: cell-based; conditions: Homo sapiens, read-out: IC50 (μM) ± SD MCF7 (p53 -/-)
# Method: (§1) Compounds were tested at six concentrations (0.001–100 μM).
# (§2) The cells were seeded into a 96-well plate and incubated at 37°C in 5% CO2 for 24 h, after which the test compounds were added to the culture medium and the cells were incubated for 48 h. 20 μL fresh MTT was added to each well, and the cells were incubated at 37°C in 5% CO2 for 4 h. After removing the culture medium, 150 μL DMSO was added to dissolve the formazan crystals. The absorbance at 540 nm was measured using a microplate reader. The results, expressed as IC50 values, were the average of three determinations and were calculated using nonlinear regression analysis.
# MCF7 (p53 +/+) cells = assay: cells; assay type: cell-based, human; conditions: read-out: IC50 (μM) ± SD MCF7 (p53 +/+)
# Method: as §1, §2
# HCT116 (p53 -/-) cells = assay: cells; assay type: cell-based, human; conditions: read-out: IC50 (μM) ± SD HCT116 (p53 -/-)
# Method: as §1, §2
# HCT116 (p53 +/+) cells = assay: cells; assay type: cell-based, human; conditions: read-out: IC50 (μM) ± SD HCT116 (p53 +/+)
# Method: as §1, §2
# human MDM2 = conditions: training set, cited from earlier work; for IC50: ref 24 (TS-1), 25 (TS-2), 12 (TS-3), 26 (TS-4), 8 (TS-6), 28 (TS-7), read-out: Potency human MDM2 (nM), IC50
# [1] = Homo sapiens, HCT-116, MTT, 48 h
# MDM2, sequence (Q00987 whole entry): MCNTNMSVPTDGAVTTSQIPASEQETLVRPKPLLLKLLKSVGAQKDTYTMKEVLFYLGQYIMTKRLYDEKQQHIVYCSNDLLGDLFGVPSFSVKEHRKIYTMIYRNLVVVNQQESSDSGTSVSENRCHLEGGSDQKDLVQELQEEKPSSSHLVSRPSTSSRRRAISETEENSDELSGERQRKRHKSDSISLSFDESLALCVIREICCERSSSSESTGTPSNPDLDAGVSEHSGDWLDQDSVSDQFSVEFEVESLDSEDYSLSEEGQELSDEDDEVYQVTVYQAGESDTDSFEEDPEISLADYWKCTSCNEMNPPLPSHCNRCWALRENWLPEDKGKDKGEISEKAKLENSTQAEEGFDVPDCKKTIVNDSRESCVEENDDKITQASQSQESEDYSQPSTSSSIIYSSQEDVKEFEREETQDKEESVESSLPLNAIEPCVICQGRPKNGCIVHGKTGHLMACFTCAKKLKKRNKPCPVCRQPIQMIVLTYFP
IC50 (Cathepsin K; read-out: Cathepsin K IC50) [µM],Ki (MDM2) [µM],"Inhibition (200 μM, %) (MDM2; 200 µM) [%]",inhibition at 200 µM (MDM2) [%],SMILES,other results
> 200,43.5,80.2,> 80,"CCOC(=O)c1cc(C(C)c2ccccc2)sc1NC(=O)c1cccc(COc2ccccc2Cl)c1 (stereo not shown) [Compound 1, Ethyl 2-({3-[(2-chlorophenoxy)methyl]benzoyl}amino)-5-(1-phenylethyl)-3-thiophenecarboxylate]",–
> 200,9.5,95.8,> 80,"C=CCn1c(SCC(=O)N2N=C(c3ccco3)CC2c2ccco2)nnc1-c1ccncc1 (stereo not shown) [Compound 2, 4-allyl-5-(4-pyridinyl)-4H-1,2,4-triazol-3-yl 2-[3,5-di(2-furyl)-4,5-dihydro-1H-pyrazol-1-yl]-2-oxoethyl sulfide]","IC50 (MCF7 (p53 -/-) cells; MCF7, MTT, 48 h): > 100 µM; IC50 (MCF7 (p53 +/+) cells; Homo sapiens, MCF7, MTT, 48 h): > 100 µM; IC50 (HCT116 (p53 -/-) cells; [1]): 58.2 ± 4.57 µM; IC50 (HCT116 (p53 +/+) cells; [1]): 35.5 ± 1.48 µM"
> 200,104,–,62.4,"O=c1nc(SCc2nc3ccccc3n2Cc2ccccc2)[nH]c2ccccc12 [Compound 3, 2-{[(1-benzyl-1H-benzimidazol-2-yl)methyl]sulfanyl}-4(1H)-quinazolinone]",–
> 200,99.5,–,76.3,"CC(C)N(C(=O)Cn1c(COc2ccc3ccccc3c2)nc2ccccc21)c1ccccc1 [Compound 4, N-isopropyl-2-{2-[(2-naphthyloxy)methyl]-1H-benzimidazol-1-yl}-N-phenylacetamide]",–
> 200,> 200,46.6,< 50,"CCOC(=O)/C=C1\NC(C)(C)Cc2cc(OC)c(OC)cc21 [Compound 6, Ethyl (6,7-dimethoxy-3,3-dimethyl-3,4-dihydro-1(2H)-isoquinolinylidene)acetate]",–
> 200,98.3,–,63.7,"CCc1nnc(NC(=O)CSc2nnc(COc3ccccc3)n2-c2ccc(C)cc2)s1 [Compound 7, N-(5-ethyl-1,3,4-thiadiazol-2-yl)-2-{[4-(4-methylphenyl)-5-(phenoxymethyl)-4H-1,2,4-triazol-3-yl]sulfanyl}acetamide]",–
> 200,> 200,37.6,< 50,"O=C(c1cc2n(n1)C(C(F)(F)F)CC(c1ccc(Br)cc1)N2)N(Cc1ccccc1)c1ccccc1 (stereo not shown) [Compound 9, N-benzyl-5-(4-bromophenyl)-N-phenyl-7-(trifluoromethyl)-4,5,6,7-tetrahydropyrazolo[1,5-a]pyrimidine-2-carboxamide]",–
> 200,> 200,32.3,< 50,"COc1ccc(OCc2nnc3sc(COc4ccccc4Cl)nn23)cc1 [Compound 11, 6-[(2-chlorophenoxy)methyl]-3-[(4-methoxyphenoxy)methyl][1,2,4]triazolo[3,4-b][1,3,4]thiadiazole]",–
> 200,> 200,18.8,–,"[N-]=[N+]=CC(=O)C(O)(c1ccccc1)C(Cl)c1ccccc1 (stereo not shown) [Compound 12, 4-chloro-1-diazo-3-hydroxy-3,4-diphenyl-2-butanone]","Inhibition (200 μM, %) (MDM2; listed as AB-131/42300827, 200 µM): < 50%"
> 200,127,–,68.6,"CCOC(=O)c1nnn(-c2nonc2N)c1CNc1ccccc1 [Compound 14, Ethyl 1-(4-amino-1,2,5-oxadiazol-3-yl)-5-(anilinomethyl)-1H-1,2,3-triazole-4-carboxylate]",–
> 200,–,–,72.4,"Cc1nn(-c2ccccc2)c(O)c1/N=N/c1cccc2ncccc12 [Compound 16, 3-Methyl-1-phenyl-4-(quinolin-5-yldiazenyl)-1H-pyrazol-5-ol]","Ki (MDM2; fluorescence polarization, eight concentrations 0.091–200 μM): 64.6 µM"
> 200,> 200,47.3,< 50,"CCOC(=O)c1c(-c2ccccc2)oc2ccc(O)c(CN(C)C)c12 [Compound 17, Ethyl 4-[(dimethylamino)methyl]-5-hydroxy-2-phenyl-1-benzofuran-3-carboxylate]",–
–,–,–,–,"COc1ccc(C2=N[C@@H](c3ccc(Cl)cc3)[C@@H](c3ccc(Cl)cc3)N2C(=O)N2CCNC(=O)C2)c(OC(C)C)c1 [Nutlin-3a, reference compound]","IC50 (MCF7 (p53 +/+) cells; MTT, 48 h): 32.2 ± 1.49 µM; IC50 (HCT116 (p53 -/-) cells; MTT, 48 h): 40.7 ± 1.47 µM; IC50 (HCT116 (p53 +/+) cells; MTT, 48 h): 18.1 ± 2.17 µM"
0.001,–,–,–,"CC(C)(F)C[C@H](N[C@@H](c1ccc(-c2ccc(S(C)(=O)=O)cc2)cc1)C(F)(F)F)C(=O)NC1(C#N)CC1 [Odancatib, reference compound]",–
–,–,–,–,CCOc1cc(C(C)(C)C)ccc1C1=NC(C)(c2ccc(Cl)cc2)C(C)(c2ccc(Cl)cc2)N1C(=O)N1CCN(CCCS(C)(=O)=O)CC1 (stereo not shown) [TS-2],IC50 (human MDM2): 18 nM
–,–,–,–,CC(C)(C)C[C@H]1N[C@@H](C(N)=O)[C@H](c2cccc(Cl)c2F)C12C(=O)Nc1cc(Cl)ccc12 (stereo partly shown) [TS-5],"Ki (human MDM2; read-out: Potency human MDM2 (nM), Ki): 3 nM"
–,–,–,–,O=C(NCCN1CCOCC1)c1[nH]c2cc(Cl)ccc2c1-c1c(-c2ccccc2)ncn1Cc1ccc(Cl)cc1 [TS-6],IC50 (human MDM2): 30 nM

SMILES,IC50 (Cathepsin K; read-out: Cathepsin K IC50) [µM],Ki (MDM2) [µM],"Inhibition (200 μM, %) (MDM2; 200 µM) [%]",inhibition at 200 µM (MDM2) [%],other results
"O=S(=O)(Nc1nc2ccccc2nc1Nc1cccc(O)c1)c1ccc(Cl)cc1 [Compound 5, 4-chloro-N-[3-(3-hydroxyanilino)-2-quinoxalinyl]benzenesulfonamide]",> 200,8.5,90.31,> 80,"IC50 (MCF7 (p53 -/-) cells; MCF7, 48 h): 56.4 ± 4.12 µM; IC50 (MCF7 (p53 +/+) cells; Homo sapiens, MCF7, 48 h): 40.2 ± 1.77 µM; IC50 (HCT116 (p53 -/-) cells; Homo sapiens, HCT-116, 48 h): 40.8 ± 3.54 µM; IC50 (HCT116 (p53 +/+) cells; Homo sapiens, HCT-116, 48 h): 17.4 ± 1.8 µM"
"C=CCn1c(COc2ccccc2)nnc1SC(C)C(=O)NN=Cc1ccccc1F (stereo not shown) [Compound 8, 2-{[4-allyl-5-(phenoxymethyl)-4H-1,2,4-triazol-3-yl]sulfanyl}-N'-(2-fluorobenzylidene)propanohydrazide]",> 200,23.4,84.7,> 80,"IC50 (MCF7 (p53 -/-) cells; MCF7, MTT, 48 h): > 100 µM; IC50 (MCF7 (p53 +/+) cells; Homo sapiens, MCF7, MTT, 48 h): > 100 µM; IC50 (HCT116 (p53 -/-) cells; [1]): > 100 µM; IC50 (HCT116 (p53 +/+) cells; [1]): > 100 µM"
"COc1cccc(OCC(=O)N(Cc2nc(-c3ccccc3)no2)C2CCCCC2)c1 [Compound 10, N-cyclohexyl-2-(3-methoxyphenoxy)-N-[(3-phenyl-1,2,4-oxadiazol-5-yl)methyl]acetamide]",> 200,3.2,96.5,> 80,"IC50 (MCF7 (p53 -/-) cells; MCF7, MTT, 48 h): 26.7 ± 1.65 µM; IC50 (MCF7 (p53 +/+) cells; Homo sapiens, MCF7, 48 h): 19.4 ± 2.26 µM; IC50 (HCT116 (p53 -/-) cells; Homo sapiens, HCT-116, 48 h): 24.1 ± 2.31 µM; IC50 (HCT116 (p53 +/+) cells; Homo sapiens, HCT-116, 48 h): 12.6 ± 2.32 µM; fold less potent in MDM2 binding affinity than nutlin-3a (MDM2; versus nutlin-3a): approximately 20 fold"
"COC(=O)C1C(CBr)N1N1C(=O)c2ccccc2C1=O (stereo not shown) [Compound 13, Methyl 3-(bromomethyl)-1-(1,3-dioxo-1,3-dihydro-2H-isoindol-2-yl)-2-aziridinecarboxylate]",–,> 200,42.9,< 50,IC50 (Cathepsin K): > 200 µM
"O=C(O)CC1c2ccccc2CCN1S(=O)(=O)c1ccccc1 (stereo not shown) [Compound 15, [2-(phenylsulfonyl)-1,2,3,4-tetrahydroisoquinolin-1-yl]acetic acid]",> 200,23.1,82.1,> 80,"IC50 (MCF7 (p53 -/-) cells; MCF7, MTT, 48 h): > 100 µM; IC50 (MCF7 (p53 +/+) cells; Homo sapiens, MCF7, MTT, 48 h): > 100 µM; IC50 (HCT116 (p53 -/-) cells; [1]): 51.7 ± 4.15 µM; IC50 (HCT116 (p53 +/+) cells; [1]): 28.1 ± 2.53 µM"
